Reference: patent US20230321067A1, “DOSING REGIMEN COMPRISING 3-(1-OXOISOINDOLIN-2-YL)PIPERIDINE-2,6-DIONE DERIVATIVES” (Novartis AG, priority 2020, published 2023)

Columns and labels:
IKZF2 [1] = test: IKZF2 degradation in primary rabbit PBMCs; type: cell-based
Experimental: I-57 mediated degradation of IKZF2 was assessed in primary PBMCs obtained from rabbit, dog, pig, cynomolgus monkey, and human, and in primary splenocytes of mouse and rat. […] Species-specificity due to species specific alteration CRBN primary structure have previously been described with other compounds known to interact with the CRBN ubiquitin ligase complex to elicit protein specific degradation (Krönke et al, 2015).

IKZF2 [2] = molecular target: T1, IKZF2 (Oryctolagus cuniculus, UniProt A0A5F9CPW0); test: Degradation of IKZF2 in primary PBMCs, rabbit (FIG. 3); type: cell-based
T1 construct: endogenous in cells; host or cells: primary rabbit PBMCs
T1 sequence (A0A5F9CPW0 1-526): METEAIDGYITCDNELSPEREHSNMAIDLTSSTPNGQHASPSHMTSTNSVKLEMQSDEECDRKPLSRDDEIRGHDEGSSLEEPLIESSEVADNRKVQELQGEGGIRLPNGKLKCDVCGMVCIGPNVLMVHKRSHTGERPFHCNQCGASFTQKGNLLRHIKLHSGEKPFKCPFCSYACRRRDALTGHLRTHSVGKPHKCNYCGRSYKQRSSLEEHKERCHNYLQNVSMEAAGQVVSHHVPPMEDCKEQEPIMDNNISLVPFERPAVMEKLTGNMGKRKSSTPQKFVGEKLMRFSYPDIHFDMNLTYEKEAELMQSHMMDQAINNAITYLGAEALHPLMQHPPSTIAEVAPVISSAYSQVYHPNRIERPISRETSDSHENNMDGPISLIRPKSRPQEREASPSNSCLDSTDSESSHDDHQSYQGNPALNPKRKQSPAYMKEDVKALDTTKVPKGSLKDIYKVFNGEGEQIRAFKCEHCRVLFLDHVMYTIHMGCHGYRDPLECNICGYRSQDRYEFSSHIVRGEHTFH
Source text: FIG. 3. is a bar graph showing the degradation of IKZF2 in primary PBMCs obtained from rabbit, dog, pig, cynomolgus monkey and human, and in primary splenocytes of mouse and rat and treated with Compound I-57.

IKZF2 [3] = molecular target: T2, IKZF2 (Homo sapiens, UniProt Q96SW2+Q9UKS7); test: IKZF2 protein levels in total tumor-infiltrating lymphocytes by immunohistochemistry, hPBMC AdT model with MDA-MB231 xenografts (FIG. 8A, 8B); type: in vivo; parameters: endogenous in cells; host or cells: primary human PBMCs; conditions: 24 h post the 14th daily dose
T2 sequence (Q9UKS7 whole entry): as the sequence (A0A5F9CPW0 1-526) above, with D68E, V234M, M266I, S373A, N423H, V449A counted along it
T2 sequence (Q96SW2 whole entry): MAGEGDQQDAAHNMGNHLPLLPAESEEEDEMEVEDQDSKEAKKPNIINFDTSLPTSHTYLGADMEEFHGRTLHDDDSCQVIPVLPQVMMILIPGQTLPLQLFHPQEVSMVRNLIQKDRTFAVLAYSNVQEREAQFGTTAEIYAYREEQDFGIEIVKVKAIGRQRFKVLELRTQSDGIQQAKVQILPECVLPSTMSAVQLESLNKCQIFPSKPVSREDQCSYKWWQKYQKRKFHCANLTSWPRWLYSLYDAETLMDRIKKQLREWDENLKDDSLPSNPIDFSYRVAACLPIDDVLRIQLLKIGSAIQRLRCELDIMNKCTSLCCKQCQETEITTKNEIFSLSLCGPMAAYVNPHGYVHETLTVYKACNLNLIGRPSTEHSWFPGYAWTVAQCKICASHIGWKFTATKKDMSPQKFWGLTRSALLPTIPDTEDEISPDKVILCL
T2 sequence (Q16531 whole entry partner): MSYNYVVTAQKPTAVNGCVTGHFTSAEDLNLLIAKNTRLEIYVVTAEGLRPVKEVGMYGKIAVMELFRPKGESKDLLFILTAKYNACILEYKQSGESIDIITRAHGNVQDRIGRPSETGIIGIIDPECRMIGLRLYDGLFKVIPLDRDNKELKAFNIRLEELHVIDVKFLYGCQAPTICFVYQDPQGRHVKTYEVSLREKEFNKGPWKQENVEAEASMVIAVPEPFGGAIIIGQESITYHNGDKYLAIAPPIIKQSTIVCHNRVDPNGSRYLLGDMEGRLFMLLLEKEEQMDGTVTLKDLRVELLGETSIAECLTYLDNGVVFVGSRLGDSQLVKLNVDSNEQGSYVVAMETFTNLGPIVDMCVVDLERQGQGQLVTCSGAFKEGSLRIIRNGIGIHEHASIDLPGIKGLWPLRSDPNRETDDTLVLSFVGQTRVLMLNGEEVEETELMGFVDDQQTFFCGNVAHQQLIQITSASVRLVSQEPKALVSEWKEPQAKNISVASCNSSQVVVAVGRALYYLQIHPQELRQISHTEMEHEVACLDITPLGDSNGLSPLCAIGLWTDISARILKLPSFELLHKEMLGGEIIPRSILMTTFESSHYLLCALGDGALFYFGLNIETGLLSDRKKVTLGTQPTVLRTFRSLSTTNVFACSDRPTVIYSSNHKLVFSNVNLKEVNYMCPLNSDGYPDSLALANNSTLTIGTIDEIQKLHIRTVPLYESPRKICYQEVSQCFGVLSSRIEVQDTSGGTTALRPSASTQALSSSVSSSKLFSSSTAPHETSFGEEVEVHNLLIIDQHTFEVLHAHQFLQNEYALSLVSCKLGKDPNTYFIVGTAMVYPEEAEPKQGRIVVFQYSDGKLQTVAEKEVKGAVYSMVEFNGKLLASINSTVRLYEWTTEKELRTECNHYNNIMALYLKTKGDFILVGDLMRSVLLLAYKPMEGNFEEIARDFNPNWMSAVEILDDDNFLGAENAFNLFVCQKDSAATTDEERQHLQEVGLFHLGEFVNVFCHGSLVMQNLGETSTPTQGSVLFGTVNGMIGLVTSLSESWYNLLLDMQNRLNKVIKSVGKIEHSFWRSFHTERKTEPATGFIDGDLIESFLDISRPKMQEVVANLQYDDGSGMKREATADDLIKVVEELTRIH
Experimental: FIG. 6 is a pictorial representation of the multi-dose PK/PD study design in the human PBMC adoptive transfer mouse model harboring MDA-MB231 xenografts. Fourteen consecutive daily doses of Compound I-57 was administered at 0.3 mg/kg, 1 mg/kg, 3 mg/kg or 30 mg/kg.
FIG. 8A is a bar graph showing the change in the IKZF2 protein levels in total tumor-infiltrating lymphocytes by immunohistochemistry (IHC) at 24 h post the 14th daily dose of 1, 3 or 30 mg/kg Compound I-57.

[4] = Repeated oral dose PK in MDA-MB231 xenograft human PBMC adoptive transfer model; type: in vivo, NSG mice; conditions: hPBMC AdT mouse
Experimental: The PK/PD relationship of I-57 was examined in the hPBMC AdT model system. Human PBMCs were adoptively transferred into female NSG mice harboring established MDA-MB231 xenografts (FIG. 6). This model was selected based on the observation that IKZF2 positive Tregs (CD4+FOXP3+) were readily identifiable in peripheral blood and infiltrated in the tumor xenografts.
Mice were administered I-57 daily for 14 consecutive days at the doses shown. Longitudinal I-57 plasma concentrations were assessed (Table 14).

IKZF2 [5] = molecular target: T2, IKZF2; test: IKZF2 in tumor-infiltrating lymphocytes by IHC, hPBMC AdT model; type: in vivo, NSG mice with human PBMCs; parameters: endogenous in cells; host or cells: human lymphocytes (CD4+FOXP3+ Tregs; total tumor-infiltrating lymphocytes) from healthy-donor PBMC transferred into NSG mice; conditions: 24 h post the 14th dose
Experimental: IKZF2 protein levels in total tumor-infiltrating lymphocytes were also assessed by immunohistochemistry (IHC) at 24 h post the 14th dose of 1, 3 or 30 mg/kg I-57. […] Overall, IKZF2 degradation assessed by IHC was generally consistent with our findings in Tregs by flow cytometry, though dose dependency was less apparent. Together, the data support the finding of profound I-57-mediated IKZF2 degradation in tumor-infiltrating lymphocytes (FIG. 8A and FIG. 8B).

plasma protein = test: Plasma protein binding in vitro, mouse; type: in vitro ADME
Source text: The binding to plasma protein of I-57 in vitro was moderate in all species, with an observed difference between rodents (73% in mouse, 76% in rat) and non-rodents (52% in dog and monkey, 54% in human). Blood-to-plasma ratios were in the range of 0.7-1.8 (human 1.1-1.3). […] Based on results with non-radiolabeled I-57 in the dog, a significant amount of unchanged I-57 was renally eliminated (˜20% of dose).

IKZF2 [6] = test: Repeated daily oral dose PD in cynomolgus monkey: IKZF2 in FOXP3+ T cells by flow cytometry; type: in vivo
Experimental: The PK/PD relationship of I-57 was further examined in cynomolgus monkeys after repeated daily oral doses of 0.1 and 3 mg/kg. In this study, a cohort of animals were initially immunized with an antigen-adjuvant mixture (KLH/Squalene). The experiment was designed to assess the effect of I-57 exposure, and the resulting IKZF2 degradation, on immune response during immunization to test the hypothesis that IKZF2 degradation would result in increased proliferation of stimulated T-cells. In the experiment, daily I-57 oral treatment was initiated 5 days after immunization. An immunization booster dose was administered on day 15. I-57 plasma concentration and IKZF2 expression (as determined by flow cytometry) in FOXP3+ T cells from PBMCs were determined (FIG. 9A and FIG. 9B).
Consistent with previous findings, IKZF2 degradation was detected 24 h after the first dose (at day 6) (FIG. 9A and FIG. 9B). The levels of IKZF2 decreased further upon repeat dosing and reached a steady-state level approximately 72 h after initiation of treatment. This level of degradation was maintained throughout the remainder of the treatment (24 days).

Treg cells = test: Suppressive potency of Treg cells expanded in the presence of compound (FIG. 2C); type: cell-based
Source text: FIG. 2C is a bar graph showing the suppressive potency of Treg cells expanded in the presence of Compound I-57.

[7] = female, NSG, mouse, plasma, po, 0.3 mg/kg, unbound, post 1st dose, p.o. 0.3 mg/kg daily
[8] = female, NSG, mouse, plasma, po, 0.3 mg/kg, unbound, post 13th dose, p.o. 0.3 mg/kg daily
[9] = female, NSG, mouse, plasma, po, 1 mg/kg, unbound, post 1st dose, p.o. 1 mg/kg daily
[10] = female, NSG, mouse, plasma, po, 1 mg/kg, unbound, post 13th dose, p.o. 1 mg/kg daily
[11] = female, NSG, mouse, plasma, po, 3 mg/kg, unbound, post 1st dose, p.o. 3 mg/kg daily
[12] = female, NSG, mouse, plasma, po, 3 mg/kg, unbound, post 13th dose, p.o. 3 mg/kg daily
[13] = female, NSG, mouse, plasma, po, 30 mg/kg, unbound, post 1st dose, p.o. 30 mg/kg daily
[14] = female, NSG, mouse, plasma, po, 30 mg/kg, unbound, post 13th dose, p.o. 30 mg/kg daily

Q: For `O=C1CCC(N2Cc3cc(C4CCN(Cc5ccccc5)CC4)ccc3C2=O)C(=O)N1` (stereo not drawn) [Compound I-57, 3-(5-(1-benzylpiperidin-4-yl)-1-oxoisoindolin-2-yl)piperidine-2,6-dione], which “degradation of IKZF2” value (IKZF2 [1]) is on record?
A: Degradation was observed

Q: What about the “degradation of IKZF2” value (IKZF2 [2]) of the same molecule?
A: degradation was observed

Q: And the “maximal level of IKZF2 degradation in total tumor-infiltrating lymphocytes (IHC)” value (IKZF2 [3]; 30 mg/kg)?
A: approximately 85%

Q: And the “reduction in IKZF2 levels in total tumor-infiltrating lymphocytes (IHC)” value (IKZF2 [3]; 1, 3 and 30 mg/kg doses)?
A: Robust reduction

Q: And the AUC(0-inf) [4, 7]?
A: 7.1 ng·h/mL

Q: What about the Cmax [4, 7] of the same molecule?
A: 2.9 ng/mL

Q: What about the AUC(0-inf) [4, 8] of the same molecule?
A: 7.5 ng·h/mL

Q: And the Cmax [4, 8]?
A: 1.1 ng/mL

Q: What about the AUC(0-inf) [4, 9] of the same molecule?
A: 30 ng·h/mL

Q: And the Cmax [4, 9]?
A: 8.8 ng/mL

Q: What about the AUC(0-inf) [4, 10] of the same molecule?
A: 20 ng·h/mL

Q: What about the Cmax at 13 days [4, 10] of the same molecule?
A: 4.6 ng/mL

Q: And the AUC(0-inf) [4, 11]?
A: 157 ng·h/mL

Q: And the Cmax [4, 11]?
A: 53 ng/mL

Q: And the AUC(0-inf) [4, 12]?
A: 92 ng·h/mL

Q: And the Cmax [4, 12]?
A: 27 ng/mL

Q: What about the AUC(0-inf) [4, 13] of the same molecule?
A: 3470 ng·h/mL

Q: And the Cmax [4, 13]?
A: 1250 ng/mL

Q: What about the AUC(0-inf) [4, 14] of the same molecule?
A: 4270 ng·h/mL

Q: And the Cmax [4, 14]?
A: 1300 ng/mL

Q: What about the “dose proportionality of AUC and Cmax” value ([4]; between 3 and 30 mg/kg) of the same molecule?
A: over-dose proportional increase

Q: And the “change in exposure by repeated dosing” value ([4]; daily dosing)?
A: No significant increase in exposure

Q: What about the “dose proportionality of AUC and Cmax” value ([4]; from 0.3 to 3 mg/kg) of the same molecule?
A: dose proportional increase

Q: And the “IKZF2 degradation in total tumor-infiltrating lymphocytes” value (IKZF2 [5]; 30 mg/kg)?
A: approximately 85%

Q: And the “IKZF2 levels in total tumor-infiltrating lymphocytes” value (IKZF2 [5]; all dose levels (1, 3 or 30 mg/kg))?
A: Robust reduction in IKZF2 levels

Q: And the “binding to plasma protein” value (plasma protein)?
A: 73%

Q: What about the IKZF2 degradation (IKZF2 [6]; 0.1 mg/kg dose level, repeated daily) of the same molecule?
A: profound

Q: What about the “time after initiation of treatment to steady-state level of IKZF2” value (IKZF2 [6]; repeated daily oral doses) of the same molecule?
A: approximately 72 h

Q: What about the “time after the first dose at which IKZF2 degradation was detected” value (IKZF2 [6]; repeated daily oral doses of 0.1 and 3 mg/kg) of the same molecule?
A: 24 h

Q: What about the “capacity of Treg cells to suppress Teff proliferation” value (Treg cells) of the same molecule?
A: reduced capacity to suppress Teff proliferation
